Laboratory results reported in US11746116B2, “Antibiotic resistance breakers” (KING'S COLLEGE LONDON, priority 2017, dated 2023).
Converted amounts (≈) assume the structure as drawn. Structures can show the parent of a compound that is named as a salt. Where two headings read alike, the source gives them in different places.

What was measured:
Experiment in all cases: MIC, microdilution broth method
EMRSA15 = format: cell-based, Staphylococcus aureus
VSE775 = format: cell-based, Enterococcus faecalis; set-up: MIC, VSE775: unit not given beside the values
VRE12204 = format: cell-based, Enterococcus faecium; settings: in µg/mL; for MIC: VRE12204
Ab17978 = format: cell-based; settings: for MIC, Ab17978: ESKAPE panel, Gram-negative
PA01 = format: cell-based, Pseudomonas aeruginosa; settings: in µg/mL; for MIC: PA01, Normal (no PMBN)
M6 = format: cell-based; settings: for MIC, M6: ESKAPE panel, Gram-negative
MSSA9144 = format: cell-based, Staphylococcus aureus
VRE12201 = format: cell-based, Enterococcus faecalis
KP13368 = format: cell-based
EMRSA16 = format: cell-based, Staphylococcus aureus
EC12923 = format: cell-based; settings: for MIC, EC12923: ESKAPE panel, Gram-negative
[1] = Ab17978, Normal (no PMBN), in µg/mL
[2] = KP13368, Normal (no PMBN), in µg/mL
[3] = ESKAPE panel, Gram-positive, in µg/mL

| Compound | MIC (EMRSA15; EMRSA15, in µg/mL) | MIC (VSE775; VSE775, in µg/mL) | MIC (VRE12204) | MIC (Ab17978; [1]) | MIC (PA01) | MIC (M6; M6, Normal (no PMBN), in µg/mL) | MIC (MSSA9144; MSSA9144, in µg/mL) | MIC (VRE12201; VRE12201, in µg/mL) | MIC (KP13368; [2]) | MIC (EMRSA16; EMRSA16, in µg/mL) | MIC (EC12923; EC12923, in µg/mL) | also measured |
| --- | --- | --- | --- | --- | --- | --- | --- | --- | --- | --- | --- | --- |
| CN(C)c1ccc(CN2CCN(c3cc4c(cc3F)c(=O)c(C(=O)O)cn4C3CC3)CC2)cc1 [ML-77-112] | 8-16 | 0.25-1 | 1 | 0.5-1 | 8 | 1-2 | 0.0625-0.125 | 0.125-0.5 |  |  |  |  |
| CCn1cc(C(=O)O)c(=O)c2cc(F)c(N3CCN(Cc4cccc(COC)c4)CC3)cc21 [ML-83-037, 1-ethyl-6-fluoro-7-(4-(3-(methoxymethyl)benzyl)piperazin-1-yl)-4-oxo-1,4-dihydroquinoline-3-carboxylic acid] | 64-128 | 16 | 16 | 8 |  | 32 | 1 | 8 | 64-128 | 64 | 16 |  |
| CCn1cc(C(=O)O)c(=O)c2cc(F)c(N3CCN(Cc4ccc(-n5cccc5)cc4)CC3)cc21 [ML-77-136, 7-(4-(4-(1H-pyrrol-1-yl)benzyl)piperazin-1-yl)-1-ethyl-6-fluoro oxo-1-4-dihydroquinoline-3-carboxylic acid] | 8 | 4-8 | 4-8 | 16-32 | 64-128 | 8-32 | 0.25-0.5 | 4-8 | 64-128 | 8-16 |  |  |
| COCc1cccc(CN2CCN(c3cc4c(cc3F)c(=O)c(C(=O)O)cn4C3CC3)CC2)c1 [ML-83-036] |  | 2-4 | 16 | 2 |  | 8 | 0.5 | 2-4 |  |  | 4 |  |
| CCn1cc(C(=O)O)c(=O)c2cc(F)c(N3CCN(Cc4ccc(COC)cc4)CC3)cc21 [ML-83-052, 1-ethyl-6-fluoro-7-(4-(4-(methoxymethyl)benzyl)piperazin-1-yl)-4-oxo-1,4-dihydroquinoline-3-carboxylic acid] | 64-128 | 8-16 | 16 | 4 |  | 8-16 | 0.5-1 | 8 | 64 | 64 | 4 |  |
| CCn1cc(C(=O)O)c(=O)c2cc(F)c(N3CCN(Cc4ccccc4)CC3)cc21 [ML-77-047] | 16 | 4 | 4 | 1-16 | 32 | 4 | 0.25 | 2 | 32 | 16-32 |  |  |
| C[C@H]1COc2c(N3CCC(n4cccn4)CC3)c(F)cc3c(=O)c(C(=O)O)cn1c23 [ML-83-041, (S)-10-(4-(1H-pyrazol-1-yl)piperidin-1-yl)-9-fluoro-3-methyl-7-oxo-2,3-dihydro-7H-[1,4]oxazino[2,3,4-ij]quinoline-6-carboxylic acid] |  | 8 | 16 | 4-8 | 64 | 4 | 2 | 8 | 32 |  | 2 |  |
| CCn1cc(C(=O)O)c(=O)c2cc(F)c(N3CCN(Cc4ccc(CO)cc4)CC3)cc21 [ML-77-148, 1-ethyl-6-fluoro-7-(4-(4-(hydroxymethyl)benzyl)piperazin-1-yl)-4-oxo-1,4-dihydroquinoline-3-carboxylic acid] | 32 | 4-8 | 8 | 2 | 32 | 4 | 0.5 | 4 | 32 | 32 |  |  |
| Cc1cc(C)cc(CN2CCN(c3cc4c(cc3F)c(=O)c(C(=O)O)cn4C3CC3)CC2)c1 [ML-77-149] | 4-8 | 2-4 | 8 | 4 | 32 | 4-8 | 0.25 | 1 |  | 8 |  |  |
| CCn1cc(C(=O)O)c(=O)c2cc(F)c(N3CCN(Cc4cccc5cccnc45)CC3)cc21 [ML-77-053] |  | 16 |  | 4 | 64 | 8 | 1 | 8 | 64 |  |  |  |
| CCn1cc(C(=O)O)c(=O)c2cc(F)c(N3CCN(Cc4ccc(-c5csnn5)cc4)CC3)cc21 [ML-77-161, 7-(4-(4-(1,2,3-thiadiazol-4-yl)benzyl)piperazin-1-yl)-1-ethyl-6-fluoro-4-oxo-1,4-dihydroquinoline-3-carboxylic acid] | 8 | 8 | 16 | 2 | 64 | 4-8 | <0.12 | 4 | 64 | 16 |  |  |
| CCn1cc(C(=O)O)c(=O)c2cc(F)c(N3CCN(Cc4cccc5c4OCO5)CC3)cc21 [ML-77-035] | >32 | 8 | 8 | 2-4 | 64-128 | 8-16 | 0.5 | 4 |  | >32 |  |  |
| Cc1cc(N2CCN(c3c(F)cc4c(=O)c(C(=O)O)cn5c4c3OC[C@@H]5C)CC2)nc(C(C)C)n1 [ML-83-011, (S)-9-fluoro-10-(4-(2-isopropyl-6-methylpyrimidin-4-yl)piperazin-1-yl)-3-methyl-7-oxo-2,3-dihydro-7H-[1,4]oxazino[2,3,4-ij]quinoline-6-carboxylic acid] | 16 | 1 | 8 | 16 |  | 16-64 | 0.25 |  | 64 | 16 | 1-8 | MIC, EMRSA15 (EMRSA15; [3]): 16; MIC (EMRSA15; Staphylococcus aureus, Staphylococcus aureus (EMRSA15), Gram-Positive (Table 14), read-out: MIC): 16 µg/mL (≈ 33.2 µM); MIC, VSE775 (VSE775; ESKAPE panel, Gram-positive): 1; MIC (VSE775; Enterococcus faecalis, Enterococcus (VRE775), Gram-Positive, read-out: MIC): 1 µg/mL (≈ 2.08 µM); MIC, KP13368 (KP13368; ESKAPE panel, Gram-negative): 64 µg/mL (≈ 133 µM); MIC (KP13368; Klebsiella pneumoniae (KP13368), Gram-Negative, read-out: MIC): 64 µg/mL (≈ 133 µM); MIC, VRE12204 (VRE12204; ESKAPE panel, Gram-positive): 8; MIC, EMRSA16 (EMRSA16; [3]): 16; MIC (EMRSA16; Staphylococcus aureus (EMRSA16), Gram-Positive (Table 14), read-out: MIC): 16 µg/mL (≈ 33.2 µM); MIC (Ab17978; Acinetobacter baumannii (AB17978), Gram-Negative, read-out: MIC): 16 µg/mL (≈ 33.2 µM); MIC, Ab17978 (Ab17978; in µg/mL): 16; MIC, M6 (M6; in µg/mL): 16-64; MIC (M6; Klebsiella pneumoniae (M6), Gram-Negative, read-out: MIC): 16 to 64 µg/mL (≈ 33.2 to 133 µM); MIC (MSSA9144; Staphylococcus aureus (MSSA9144), Gram-Positive, read-out: MIC): 0.25 µg/mL (≈ 0.519 µM); MIC, EC12923 (EC12923; in µg/mL): 1-8; MIC (EC12923; Escherichia coli (EC12923), Gram-Negative, read-out: MIC): 1 to 8 µg/mL (≈ 2.08 to 16.6 µM); MIC, VRE12201 (VRE12201; [3]): 0.5-1; MIC (VRE12201; Enterococcus faecalis, Enterococcus (VRE12201), Gram-Positive, read-out: MIC): 0.5 to 1 µg/mL (≈ 1.04 to 2.08 µM) |
| Cc1cc(N2CCN(c3c(F)cc4c(=O)c(C(=O)O)cn5c4c3OC[C@@H]5C)CC2)nc(C(C)C)n1 [ML-83-012, hydrochloride] |  |  |  |  |  |  |  |  |  |  |  | MIC (VSE775; Enterococcus (VRE775), Gram-Positive): 0 to 5 µg/mL; MIC (KP13368; Klebsiella pneumoniae (KP13368), Gram-Negative): 64 µg/mL; MIC (EMRSA16; Staphylococcus aureus (EMRSA16), Gram-Positive (Table 14), hydrochloride): 2 µg/mL; MIC, Ab17978 (Ab17978; hydrochloride, in µg/mL): 8; MIC, PA01 (PA01; ESKAPE panel, Gram-negative, hydrochloride): 32; MIC, M6 (M6; hydrochloride, in µg/mL): 16; MIC, MSSA9144 (MSSA9144; [3]): 0.25; MIC (MSSA9144; Staphylococcus aureus (MSSA9144), Gram-Positive): 0.25 µg/mL; MIC, EC12923 (EC12923; hydrochloride, in µg/mL): 4 |
| COCc1ccc(CN2CCN(c3cc4c(cc3F)c(=O)c(C(=O)O)cn4C3CC3)CC2)cc1 [ML-83-050] | 16-32 | 1-2 | 16 | 1 |  | 2 | 0.25 | 1 |  |  | 1 |  |
| C[C@H]1COc2c(N3CCN(c4ccncc4)CC3)c(F)cc3c(=O)c(C(=O)O)cn1c23 [ML-83-019] |  |  |  | 64 |  | 64 | 64 |  |  |  | 32 |  |
| O=C(O)c1cn(C2CC2)c2cc(N3CCN(Cc4ccc(-c5ccccc5)cc4)CC3)c(F)cc2c1=O [ML-77-133] | 2 | 2 | 2 | 2 | 4 | 1 | 1 | 4 |  | 2 |  |  |
| CCn1cc(C(=O)O)c(=O)c2cc(F)c(N3CCN(Cc4ccc(N(C)C)cc4)CC3)cc21 [ML-77-113] | 16-32 | 4-8 | 0.25 | 2 | 16-32 | 4-16 | 0.125-0.25 | 2 | 32 | >32 |  |  |
